The test system of this series is Primary human hepatocytes. Put plainly: EGF assay, culture media of primary human hepatocytes.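 Also: values as percent of saline vehicle control.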 The format is cell-based. The settings on record: 10 ng/ml EGF in medium. Here is the method: Cryopreserved human hepatocytes were suspended in William's Medium E (WME) without phenol red (Sigma W-1878) supplemented with 10% fetal calf serum, penicillin (100 U/ml), streptomycin (0.1 mg/ml) at a density of approx. 1×10^6 cells/ml and seeded into collagen-coated 96-well plates (Becton Dickinson AG, Allschwil, Switzerland) at a density of 0.4×10^5 cells/well. Cells were pre-cultured for 3 to 4 h allowing for attachment to cell culture plates before start of treatment with oligonucleotides.
Before oligonucleotide treatment the seeding medium was replaced by 90 μl of serum free WME.
The total volume of each well was 100 μl. PBS served as vehicle control.
Human primary hepatocytes were cultivated as described in the “Materials and methods” section with addition of 10 ng/ml of EGF to the medium. At confluence the cells were treated with oligonucleotide as described in the “Materials and methods” section, in concentrations of 10 or 100 μM.
The medium was obtained at day 3, and the EGF level was measured according to the assay described in the “Materials and methods” section.

l = locked nucleic acid (LNA); d = 2'-deoxy (DNA)

Regarding “TGCtacaaaacCCA (antisense TGCTACAAAACCCA; sugars from the 5' end l3 d8 l3, backbone and methylation of C not given here) [Compound 3-1]”, the EGF is 227 % saline (day 3, 10 μM) and 411 % saline (day 3, 100 μM).

For the substance “GCtgtgtgagcttGG (antisense GCTGTGTGAGCTTGG; sugars from the 5' end l2 d11 l2, backbone and methylation of C not given here) [Compound 4-1]”, the EGF was 323 % saline (day 3, 10 μM) and 985 % saline (day 3, 100 μM).
